What was measured:
Format in all cases: cell-based, human
hPSC-derived Epi cells = test: Matrigel invasion assay eight days after EMT induction, confocal microscopy and 3D reconstruction; conditions: eight days following induction of EMT
From the text: (a) Representative fields of view in the XY plane (top view) and 3D reconstruction (side view) of the matrigel invasion assay on D8 after EMT induction.
(b) Maximum matrigel invasion depth on D8 following EMT initiation. Bars represent standard error of the mean of the values from three independent experiments (N=3); **P≤0.01 compared to non-treated controls as analyzed by Student's T-test.
It is well established that during heart development EPDCs, and in particular cardiac fibroblasts, invade the myocardial layer^33. To assess this potential of the hPSC-derived Epi cells, their ability to invade a 3D layer of Matrigel following induction of EMT with the different factors was measured. To enable us to easily track the migration of the cells, the Epi population was generated from GFP expressing hESCs^48. Matrigel invasion was monitored eight days following the induction of EMT by confocal microscopy and evaluated using 3D image reconstruction (FIG. 16a). […] Along with invasion, bFGF treatment also led to an increase in total cell number within the regions of interest (ROI). […] To further quantify the degree of invasion, the proportion of cells in each population that migrated to different depths was calculated. Virtually all of the cells in the non-induced, the TGFβ-induced and TGFβ+bFGF-induced populations were detected within the first 200 μm of the gel. In contrast, approximately half of the cells in the bFGF-induced population migrated beyond this depth, some as far as 600 μm.

[1] = tested on: hESC epicardial-derived smooth muscle-like cells; test: Calcium transients of EMT-induced cells after norepinephrine (NE) and phenylephrine (PE) stimulation
Experimental: (a) The total proportion of actively cycling cells in EMT-induced cultures was measured for the indicated treatments. Treatment with TGFβ+bFGF generated populations with the largest proportion of actively cycling cells in response to agonists. Bars represent standard error of the mean; N=3/group; *P<0.05, **P<0.01 compared by one-way ANOVA with Tukey post hoc test. (b) The frequency of calcium cycles in actively cycling cells in the conditions as indicated at baseline and after NE and PE addition. Stacked bars represent the contribution to frequency of calcium cycling during baseline recording (hatched lines), and after NE (white) or PE (black) treatment. (c) The amplitude of calcium transients after NE and PE addition in the EMT induced cultures. No Treatment NE N=6 cells, PE N=4 cells; TGFβ NE N=6 cells, PE N=12 cells; TGFβ+bFGF NE N=13 cells, PE N=25 cells. *P<0.05 compared by one-way ANOVA with Tukey post hoc test. (d) The duration of calcium transients after NE and PE addition in the EMT induced cultures. […]
To test the contractile function of the smooth muscle-like cells generated following the EMT induced with TGFβ and TGFβ+bFGF, calcium transients were measured following stimulation with norepinephrine (NE) and phenylephrine (PE) using previously described methods^32. […]

WT1+ epicardial cells = test: ALDH1A2 expression (qRT-PCR) and Aldefluor staining (flow cytometry) after EMT induction; conditions: cultures in which EMT had been induced, versus non-treated passaged epicardial cells
From the text: FIG. 17. WT1^+ epicardial cells upregulate ALDH1A2 expression and display aldehyde dehydrogenase activity following passage. (a) qRT-PCR-based expression analyses of ALDH1A1, ALDH1A2 and ALDH1A3 in D15 WT^+ epicardial cultures and Day 15+8 post-passage non-treated epicardial cultures. Values are relative to the housekeeping gene TBP. Error bars represent standard deviation from the mean of the values from three independent experiments (N=3); *P≤0.05, **P≤0.01 compared to ALDH1A2 expression levels. (b) qRT-PCR-based expression analyses of ALDH1A2 on days 2, 4, 6 and 8 following the initiation of EMT. Values are expressed as fold change to experiment-matched pre-passaged day 15 WT1^+ epicardial cultures. Error bars represent standard deviation from the mean of the values from three independent experiments (N=3); *P≤0.05, **P≤0.01 compared to no treatment control cultures. (c) Flow cytometric analyses of Aldefluor on day 15 populations generated from cells treated from days 4 to 6 with DM (non-cardiac, non-epicardial), BMP4+XAV (cardiomyocytes) or BMP4+CHIR (WT1^+ epicardial cells). (d) Flow cytometry analyses of Aldefluor on WT1^+ epicardium-derived cultures 8 days following the initiation of EMT with the indicated treatments. […]

[2] = tested on: hESC-derived WT1+ epicardial cells; test: EMT induction in passaged day 15 WT1+ epicardial cells; qRT-PCR, flow cytometry, immunostaining; conditions: for WT1 expression over time after EMT initiation: qRT-PCR, eight-day culture
Experimental: FIG. 11. WT1^+ epicardial cells undergo EMT in response to TGFβ1 and bFGF treatment. (a) Scheme of the protocol used for EMT induction. Day 15 WT1+ cultures are passaged, allowed to settle for 1 day and then treated with TGFβ1 (5 ng/ml) for 4 days followed by no treatment (TGFβ), sequential treatment with […] (5 ng/ml) for 4 days followed by bFGF (10 ng/ml) for 4 days (TGFβ+bFGF), or bFGF (10 ng/ml) treatment for 8 days (bFGF). No treatment of the cultures serves as a control. (b) Flow cytometric analyses of cultures 8 days following the initiation of EMT for the cell surface mesenchymal marker CD90. Gray filled histogram indicates control culture fluorescence intensity. (c) qRT-PCR-based expression of the epicardial gene WT1 and the EMT-induced genes SNAI1 and SNAI2 on days 2, 4, 6 and 8 after EMT initiation. Values are expressed as fold change to experiment-matched pre-passaged day 15 WT1+ cultures. Error bars represent standard deviation from the mean of the values from three independent experiments (N=3); *P≤0.05, **P≤0.01 compared to no treatment control.
FIG. 12. WT1 and ZO1 expression is lost in response to EMT. Phase contrast and fluorescent immunostaining showing cell morphology and the expression of ZO1 and WT1 proteins in epicardial cultures 8 days after EMT initiation with the indicated factors.
FIG. 13. EPDCs display characteristic expression of fibroblasts and vascular smooth muscle cell markers by fluorescent immunostaining. Fluorescent immunostaining showing α-Smooth muscle actin (SMA) and Vimentin (VIM) protein in cultures 8 days after EMT initiation with the indicated factors.
FIG. 14. EPDCs display characteristic expression of fibroblasts and vascular smooth muscle cell markers by qRT-PCR. qRT-PCR-based expression analyses of the smooth muscle genes […], MYH11, TAGLN and SMTN and the epicardial/cardiac fibroblast gene TCF21 in the indicated cultures 8 days after EMT initiation. Values are expressed as fold change to experiment-matched pre-passaged day 15 WT1^+ epicardium cultures. Error bars represent standard deviation from the mean of the values from three independent experiments (N=3); *P≤0.05, **P≤0.01 compared to no treatment control cultures.
To determine if the hESC-derived WT1^+ epicardial-like cells can undergo EMT, an assay was designed in which D15 epicardial cells are passaged, allowed one day to recover, and then treated for a total of eight days with one of four treatment regimens. The regimens consisted of: 1) TGFβ-1 for four days followed by four days with no additional factor (TGFβ), 2) TGFβ-1 for four days followed by four days with bFGF (TGFβ+bFGF), 3) bFGF for eight days (bFGF) or 4) no additional factors for eight days (FIG. 11a). Following culture under the different conditions, the cells were harvested and analyzed by qRT-PCR and flow cytometry.

[3] = qRT-PCR 8 days after EMT initiation

| Substance | Matrigel invasion (migratory behaviour, depth) (hPSC-derived Epi cells) | total cell number within the regions of interest (hPSC-derived Epi cells) | amplitude of calcium response ([1]; PE-treated, compared to control cultures) | calcium cycling rates ([1]; following PE stimulation, cells that exhibited calcium transients) | ALDH1A2 expression and Aldefluor staining (WT1+ epicardial cells) | ZO1 (and WT1) expression by immunostaining ([2]; 8 days after EMT initiation) | vimentin (VIM) immunostaining ([2]; 8 days after EMT initiation, compared with bFGF alone) | α-smooth muscle actin (SMA) immunostaining ([2]; compared to bFGF or absence of factors) | expression of smooth muscle genes CNN1, MYH11, TAGLN, SMTN and fibroblast marker TCF21 [2, 3] | SNAI2 expression ([2]; qRT-PCR after EMT initiation) | WT1 expression over time after EMT initiation [2] | proportion of cells that migrated beyond 200 μm (hPSC-derived Epi cells) | farthest depth of migration (hPSC-derived Epi cells; some cells) | MYH11 expression [2, 3] | SNAI1 expression ([2]; qRT-PCR after EMT initiation) |
| --- | --- | --- | --- | --- | --- | --- | --- | --- | --- | --- | --- | --- | --- | --- | --- |
| TGFβ-1 | little capacity to invade the Matrigel | 56.8±9.5 cells per ROI | greatest | faster calcium cycling rates than those in the non-induced control cultures | dramatically lower levels | internalized or lost | substantially brighter staining | higher levels | upregulated expression of CNN1, MYH11, TAGLN and SMTN but not TCF21 | increases in SNAI2 expression | steady decreases in WT1 expression | – | – | – | – |
| bFGF | most migratory and invaded the matrigel to the greatest depth | 379.7±40.5 cells per ROI | – | – | dramatically lower levels | internalized or lost | – | – | expressed TCF21 in addition to CNN1, TAGLN and SMTN | increases in SNAI2 expression | did not decline below those of the control | approximately half | ≤ 600 μm | did not express MYH11 | induced the expression of SNAI1 |

— patent US10711246B2, “Methods and compositions for generating epicardium cells” (UNIVERSITY HEALTH NETWORK, priority 2013, dated 2020)
